{"source": "patent US20230235378A1", "about": "“LZHEIMER'S DISEASE-SPECIFIC ALTERATIONS OF PROTEIN KINASE C EPSILON (PKC-EPSILON PROTEIN LEVELS” (WEST VIRGINIA UNIVERSITY BOARD OF GOVERNORS ON BEHALF OF …, priority 2010, published 2023)", "key": {"purified PKC": {"biological_target": "T1, purified PKC (Homo sapiens, UniProt Q02156)", "T1 construct": "purchased Calbiochem", "T1 sequence (Q02156 1-737)": "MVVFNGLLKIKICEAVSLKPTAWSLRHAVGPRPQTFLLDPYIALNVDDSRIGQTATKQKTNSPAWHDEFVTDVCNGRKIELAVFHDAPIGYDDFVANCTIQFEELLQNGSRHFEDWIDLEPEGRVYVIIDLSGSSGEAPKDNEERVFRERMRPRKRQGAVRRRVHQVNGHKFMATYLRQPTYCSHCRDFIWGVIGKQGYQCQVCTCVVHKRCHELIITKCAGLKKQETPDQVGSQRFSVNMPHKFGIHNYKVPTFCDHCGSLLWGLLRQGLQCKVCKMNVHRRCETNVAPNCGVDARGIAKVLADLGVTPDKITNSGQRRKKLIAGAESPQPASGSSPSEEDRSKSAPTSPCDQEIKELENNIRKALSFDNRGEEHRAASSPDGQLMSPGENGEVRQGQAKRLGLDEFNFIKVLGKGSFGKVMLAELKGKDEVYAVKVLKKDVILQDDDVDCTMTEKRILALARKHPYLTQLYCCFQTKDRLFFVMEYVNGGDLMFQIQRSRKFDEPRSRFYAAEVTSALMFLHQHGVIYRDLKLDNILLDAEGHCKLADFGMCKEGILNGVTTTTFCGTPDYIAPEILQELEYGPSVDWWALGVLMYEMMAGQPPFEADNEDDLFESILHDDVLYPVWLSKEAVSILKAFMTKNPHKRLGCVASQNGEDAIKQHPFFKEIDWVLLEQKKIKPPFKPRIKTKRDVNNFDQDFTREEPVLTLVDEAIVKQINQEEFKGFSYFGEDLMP", "experiment": "PKC isozyme specificity: purified PKC preincubated with compound, activity measured radiometrically", "type": "biochemical", "conditions": "10 μM; data not shown", "method": "(§1) Protein Kinase C Assay. Rat hippocampal cells were cultured and scraped in 0.2 ml homogenization buffer (20 mM Tris-HCl, pH 7.4, 50 mM NaF, 1 μg/ml leupeptin, and 0.1 mM PMSF) and homogenized by sonication in a Marsonix micro-probe sonicator (5 sec, 10 W). To measure PKC, 10 μl of cell homogenate or purified PKC isozyme (purchased from Calbiochem) was incubated for 15 min at 37° C. in the presence of 10 μM histones, 4.89 mM CaCl2, 1.2 μg/μl phosphatidyl-L-serine, 0.18 μg/μl 1,2-dioctanoyl-sn-glycerol, 10 mM MgCl2, 20 mM HEPES (pH 7.4), 0.8 mM EDTA, 4 mM EGTA, 4% glycerol, 8 μg/ml aprotinin, 8 μg/ml leupeptin, and 2 mM benzamidine. 0.5 μCi [γ-32P]ATP was added and 32P-phosphoprotein formation was measured by adsorption onto phosphocellulose as described previously. Nelson and Alkon, J. Neurochemistry. 1995; 65: 2350-57. For measurements of activation by BR-101 (DCP-LA) and similar compounds, PKC activity was measured in the absence of diacylglycerol and phosphatidylserine, as described by Kanno et al., and PKC δ, ε, η, and were measured in the absence of added EGTA and CaCl2, as described by Kanno et al., J. Lipid Res. 2006; 47: 1146-50. Low concentrations of Ca2+ are used because high Ca2+ interacts with the PKC phosphatidylserine binding site and prevents activation. For measurements of bryostatin activation, 1,2-diacylglycerol was omitted unless otherwise stated.\n(§2) To determine their PKC isozyme specificity, the new compounds were preincubated with purified PKC for five minutes and the PKC activity was measured radiometrically."}, "PKCε [1]": {"biological_target": "T2, PKCε (Homo sapiens, UniProt Q02156)", "T2 construct": "purchased Calbiochem (San Diego, Calif.)", "T2 sequence (Q02156 1-737)": "T1 sequence (Q02156 1-737)", "experiment": "Protein kinase C assay with recombinant PKC epsilon isoform ([γ32P]ATP, histones)", "type": "biochemical", "conditions": "lowest concentration tested (10 nM)", "method": "(§3) Protein Kinase C Assay. Recombinant PKC (1 ng of alpha or epsilon isoform) was mixed with the BR-101 (DCP-LA) in the presence of 10 micromolar histones, 5 mM CaCl2, 1.2 μg/μl phosphatidyl-L-serine, 0.18 μg/μl 1,2-dioctanoyl-sn-glycerol (DAG), 10 mM MgCl2, 20 mM HEPES (pH 7.4), 0.8 mM EDTA, 4 mM EGTA, 4% glycerol, 8 μg/ml aprotinin, 8 μg/ml leupeptin, and 2 mM benzamidine. 0.5 micro Ci [γ32P]ATP was added. The incubation mixture was incubated for 15 min at 37 degrees in a total volume of 10 microliters. The reaction was stopped by spotting the reaction mixtures on 1×2 cm strips of cellulose phosphate paper (Whatman P81) and immediately washing twice for 1 hr in 0.5% H3PO4. The cellulose phosphate strips were counted in a scintillation counter. In some experiments, phosphatidylserine, diacylglycerol, and/or calcium were removed."}, "PKCγ": {"biological_target": "T3, PKCγ (Homo sapiens, UniProt P05129)", "T3 construct": "purchased Calbiochem", "experiment": "PKC isozyme specificity: PKCγ", "type": "biochemical", "conditions": "50-100 μM; data not shown", "method": "as §1, with “Low concentrations of Ca2+ are used because high Ca2+ interacts with the PKC phosphatidylserine binding site and prevents activation. For measurements of bryostatin activation, 1,2-diacylglycerol was omitted unless otherwise stated.” left out\nas §2"}, "PKCα": {"biological_target": "T4, PKCα (Homo sapiens, UniProt P17252)", "T4 construct": "purchased Calbiochem (San Diego, Calif.)", "experiment": "Protein kinase C assay with recombinant PKC alpha isoform ([γ32P]ATP, histones)", "type": "biochemical", "conditions": "data not shown", "method": "as §3"}, "PKCε [2]": {"biological_target": "T2, PKCε", "conditions": "Kanno et al.; cited from earlier work"}, "other PKC isoforms": {"tested_on": "other PKC isoforms", "experiment": "PKC isozyme specificity: other PKC isoforms", "type": "biochemical", "conditions": "10 μM; data not shown", "method": "as §1, with “Low concentrations of Ca2+ are used because high Ca2+ interacts with the PKC phosphatidylserine binding site and prevents activation. For measurements of bryostatin activation, 1,2-diacylglycerol was omitted unless otherwise stated.” left out\nas §2"}, "Aß": {"tested_on": "Aß", "experiment": "Aß production in N2a neuroblastoma cells transfected with human APPSwe/PS1D (Aß 1-42 ELISA)", "type": "cell-based, mouse", "method": "Aß Measurement and Cell Viability Assay. Aß was measured using an Aß 1-42 human fluorimetric ELISA kit (Invitrogen) according to the manufacturer's instructions. Results were measured in a Biotek Synergy HT microplate reader. AlamarBlue and CyQuant NF (Invitrogen) according to the manufacturer's instructions.\nTo measure the effects of PKC activation on Aß production, we used mouse neuro2a (N2a) neuroblastoma cells transfected with human APPSwe/PS1D, which produce large quantities of Aβ. Petanceska et al., J. Neurochem. 1996; 74: 1878-84. […] With bryostatin, which activates PKC by binding to the diacylglycerol-binding site, the inhibition was biphasic, with concentrations of 20 nM or higher producing no net effect. This may be explained by the ability of this class of PKC activators to downregulate PKC when used at high concentrations."}, "PKCδ": {"biological_target": "T5, PKCδ (Homo sapiens, UniProt Q05655)", "T5 construct": "purchased Calbiochem", "T5 sequence (Q05655 whole entry)": "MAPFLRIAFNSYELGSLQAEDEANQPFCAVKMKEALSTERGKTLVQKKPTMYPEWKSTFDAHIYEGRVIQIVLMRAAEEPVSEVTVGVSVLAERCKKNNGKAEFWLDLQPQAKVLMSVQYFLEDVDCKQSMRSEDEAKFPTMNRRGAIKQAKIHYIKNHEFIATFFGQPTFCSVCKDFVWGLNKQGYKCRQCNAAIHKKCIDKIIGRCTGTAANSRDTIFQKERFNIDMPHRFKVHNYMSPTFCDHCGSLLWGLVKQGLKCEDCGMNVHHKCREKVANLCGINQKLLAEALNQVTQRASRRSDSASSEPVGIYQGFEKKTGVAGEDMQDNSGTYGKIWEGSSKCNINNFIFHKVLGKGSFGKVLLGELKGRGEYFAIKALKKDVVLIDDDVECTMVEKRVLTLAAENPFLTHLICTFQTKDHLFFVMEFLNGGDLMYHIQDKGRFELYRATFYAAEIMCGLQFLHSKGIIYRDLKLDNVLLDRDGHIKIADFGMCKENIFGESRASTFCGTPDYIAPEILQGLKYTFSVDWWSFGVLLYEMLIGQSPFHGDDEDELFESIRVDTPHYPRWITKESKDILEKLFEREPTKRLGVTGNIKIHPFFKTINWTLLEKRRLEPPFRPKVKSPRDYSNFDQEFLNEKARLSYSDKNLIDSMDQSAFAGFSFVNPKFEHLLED", "experiment": "PKC isozyme specificity: PKCδ", "type": "biochemical", "conditions": "about 1-100 μM; data not shown", "method": "as §1, with “Low concentrations of Ca2+ are used because high Ca2+ interacts with the PKC phosphatidylserine binding site and prevents activation. For measurements of bryostatin activation, 1,2-diacylglycerol was omitted unless otherwise stated.” left out\nas §2"}}, "data": [{"smiles": "CCCCCC1CC1CC1CC1CCCCCCCC(=O)O", "note": "(stereo not drawn) [BR-101, 8-[2-(2-pentyl-cyclopropylmethyl)-cyclopropyl]-octanoic acid]", "values": [{"measurement": "activation of PKC", "setting": "purified PKC", "result": "effective activator"}, {"measurement": "activation of PKCε", "setting": "PKCε [1]", "result": 2.75, "unit": "fold"}, {"measurement": "effect on PKCγ at higher concentrations", "setting": "PKCγ", "result": "activated"}, {"measurement": "effect on PKCα", "setting": "PKCα", "result": "not affected"}, {"measurement": "potency for PKCε over other PKC isozymes", "setting": "PKCε [2]", "result": "greater than 7 fold"}, {"measurement": "effects on the other PKC isoforms", "setting": "other PKC isoforms", "result": "relatively small effects"}, {"measurement": "levels of both intracellular and secreted Aß", "setting": "Aß; 24 h incubation, various concentrations", "result": "markedly reduced"}, {"measurement": "concentration dependence of Aß inhibition", "setting": "Aß; concentrations up to 10 to 100 μM, no evidence of downregulation at higher concentrations", "result": "monotonically increasing inhibition"}, {"measurement": "effect on PKCδ at higher concentrations", "setting": "PKCδ", "result": "partially inhibited"}]}]}
